Test results published in paper PMC7179112, “Antimicrobial, Antioxidant, and Anticancer Activities of Some Novel Isoxazole Ring Containing Chalcone and Dihydropyrazole Derivatives” (Molecules, 2020).
In brackets after ≈: the same amount, converted by molar mass.

What was measured:
[1] = tested on: Pseudomonas aeruginosa; assay: Antibacterial activity, serial tube dilution method; assay type: cell-based; settings: Pseudomonas aeruginosa; Gram-negative; serial tube dilution; read-out: MIC P aeruginosa
Method: (§1) The target chalcones (17–31) and pyrazolines (32–46) were tested for their antimicrobial activities by serial tube dilution method against two types of bacterial and fungal strains (Table 1 and Table 2). The bacterial strains used for the testing, including Gram-positive Staphylococcus aureus and Gram-negative Pseudomonas aeruginosa, whereas the fungal strains employed were Aspergillus niger and Candida tropicalis.
(§2) The antibacterial and antifungal activity of the novel chalcones (17 to 31) and dihydropyrazoles (32 to 46) against the selected bacterial and fungal strains was assessed by following the procedure described in our previous paper.

[2] = tested on: Staphylococcus aureus; assay: as above; assay type: cell-based; settings: Staphylococcus aureus; Gram-positive; serial tube dilution; read-out: MIC S aureus
Method: as §1, §2

[3] = tested on: Aspergillus niger; assay: Antifungal activity, serial tube dilution method; assay type: cell-based
Method: as §1, §2

[4] = tested on: Candida tropicalis; assay: Antifungal activity, serial tube dilution method; assay type: cell-based; settings: read-out: MIC C tropicalis
Method: as §1, §2

[5] = DPPH free radical scavenging assay; settings: antioxidant activity; average of three independent experiments
Method: The antioxidant activity of all 30 compounds was assessed using 1,1-diphenyl-2-picrylhydrazine (DPPH) free radical scavenging assay and the results are the average of three independent experiments (Table 3). Gallic acid was employed as a positive control. […] In the disubstituted series (20–25), compound 25 with substitutions at position 3 and 5 on the phenyl ring gave the highest activity of 9 µg/mL.
The purpose of this study was to evaluate the antioxidant activity of chalcones and pyrazolines using the DPPH free radical assay. The percentage of antioxidant activity (AA%) of all the compounds was assessed by the DPPH free radical assay. The measurement of the DPPH radical scavenging activity was performed according to methodology described by Brand-Williams et al. The samples were reacted with the stable DPPH radical in an ethanol solution. A 0.1 mM solution of DPPH was prepared by dissolving DPPH in methanol. Gallic acid was taken as a reference standard and different concentrations of test samples (5–100 µg/mL) and standard (1.0, 2.5, and 5.0 µg/mL) were prepared using methanol. One milliliter of 0.1 mM DPPH solution was added to 3 mL of all concentrations of test samples and standard separately. These mixtures were kept in dark for about 30 min and the absorbance was measured at 517 nm. The capability to scavenge the DPPH radical was calculated using the formula:(1) DPPH scavanged (%)= Absorbance of control−Absorbance of sample/Absorbance of control∗100 when DPPH reacted with an antioxidant compound and was reduced, the change in color (from deep violet to light yellow) was read [Absorbance (Abs)] at 517 nm after […] of reaction using a UV-VIS spectrophotometer.

[6] = tested on: prostate cancer cell line, DU-145; assay: MTT assay anticancer activity; assay type: cell-based; settings: for IC50: Homo sapiens, MTT assay, mean ± SD (n = 3); for Anticancer potency MIC: given as MIC in text/Figure 3
Method: All the 30 compounds were evaluated for their anticancer potency against the prostate cancer cell line, DU-145, employing colorimetric tetrazolium dye (MTT) assay. […] Among the disubstituted series 20–25, substitution at position 3 and 4 (compound 24) produced the best activity but was lower than the standard. […] Similar phenomena can be seen among the dihydropyrazole series.
The in vitro anticancer activity of chalcones (17 to 31) and dihydropyrazoles (32 to 46) was evaluated by the Mosmann’s MTT assay as described previously.

[7] = tested on: Human Normal Cells (L02); assay: MTT assay toxicity on normal cells; assay type: cell-based
[8] = tested on: Aspergillus niger and Candida tropicalis; assay: Antifungal activity (strain not named); assay type: cell-based; settings: text/figure value, strain not named
Method: as §1, §2

Compound	MIC [1] [µg/mL]	MIC [2] [µg/mL]	MIC [3] [µg/mL]	MIC [4] [µg/mL]	DPPH assay IC50 [5]	IC50 [6] [µg/mL]	IC50 [7] [µg/mL]	MIC [8] [µg/mL]	Anticancer potency MIC [6] [µg/mL]
O=C(O)c1cn(C2CC2)c2cc(N3CCNCC3)c(F)cc2c1=O [Ciprofloxacin, reference compound]	2 (≈ 6.04 µM)	2 (≈ 6.04 µM)							
COc1ccc(/C=C/C(=O)c2ccno2)cc1 [Compound 17]	8 (≈ 34.9 µM)	4 (≈ 17.4 µM)	8 (≈ 34.9 µM)	8 (≈ 34.9 µM)	33 ± 1 µg/mL	32 ± 2 (≈ 140 µM)	> 40		
COc1ccccc1/C=C/C(=O)c1ccno1 [Compound 19]	4 (≈ 17.4 µM)	4 (≈ 17.4 µM)	8 (≈ 34.9 µM)	16 (≈ 69.8 µM)	32 ± 2 µg/mL	36 ± 1 (≈ 157 µM)	> 40		
COc1cccc(/C=C/C(=O)c2ccno2)c1OC [Compound 20]	64 (≈ 247 µM)	32 (≈ 123 µM)	64 (≈ 247 µM)	32 (≈ 123 µM)	24 ± 1 µg/mL	22 ± 1 (≈ 84.9 µM)	> 40		
COc1ccc(/C=C/C(=O)c2ccno2)c(OC)c1 [Compound 21]	4 (≈ 15.4 µM)	2 (≈ 7.71 µM)	8 (≈ 30.9 µM)	16 (≈ 61.7 µM)	18 ± 2 µg/mL	29 ± 2 (≈ 112 µM)	> 40		
COc1ccc(OC)c(/C=C/C(=O)c2ccno2)c1 [Compound 22]	32 (≈ 123 µM)	32 (≈ 123 µM)	64 (≈ 247 µM)	64 (≈ 247 µM)	26 ± 2 µg/mL	38 ± 1 (≈ 147 µM)	> 40		
COc1cccc(OC)c1/C=C/C(=O)c1ccno1 [Compound 23]	4 (≈ 15.4 µM)	4 (≈ 15.4 µM)	4 (≈ 15.4 µM)	4 (≈ 15.4 µM)	16 ± 1 µg/mL	33 ± 2 (≈ 127 µM)	> 40		
COc1ccc(/C=C/C(=O)c2ccno2)cc1OC [Compound 24]	32 (≈ 123 µM)	64 (≈ 247 µM)	128 (≈ 494 µM)	64 (≈ 247 µM)	29 ± 1 µg/mL	6 ± 2 (≈ 23.1 µM)	> 40		
COc1cc(OC)c(OC)cc1/C=C/C(=O)c1ccno1 [Compound 27]	16 (≈ 55.3 µM)	16 (≈ 55.3 µM)	32 (≈ 111 µM)	32 (≈ 111 µM)	7 ± 2 µg/mL	26 ± 3 (≈ 89.9 µM)	> 40		
COc1ccc(/C=C/C(=O)c2ccno2)c(F)c1OC [Compound 30]	4 (≈ 14.4 µM)	4 (≈ 14.4 µM)	16 (≈ 57.7 µM)	16 (≈ 57.7 µM)	45 ± 2 µg/mL	5 ± 2 (≈ 18 µM)	> 40		
COc1cc(Cl)c(/C=C/C(=O)c2ccno2)c(OC)c1 [Compound 31]	2 (≈ 6.81 µM)	2 (≈ 6.81 µM)	4 (≈ 13.6 µM)	4 (≈ 13.6 µM)	48 ± 1 µg/mL	16 ± 2 (≈ 54.5 µM)	> 40		
COc1ccc(C2CC(c3ccno3)=NN2C(N)=O)cc1 (centres unmarked) [Compound 32]	16 (≈ 55.9 µM)	16 (≈ 55.9 µM)	4 (≈ 14 µM)	4 (≈ 14 µM)	44 ± 1 µg/mL	28 ± 1 (≈ 97.8 µM)	> 40	4 (≈ 14 µM)	
COc1cccc(C2CC(c3ccno3)=NN2C(N)=O)c1 (centres unmarked) [Compound 33]	128 (≈ 447 µM)	128 (≈ 447 µM)	64 (≈ 224 µM)	64 (≈ 224 µM)	51 ± 2 µg/mL	18 ± 2 (≈ 62.9 µM)	> 40		
COc1cccc(C2CC(c3ccno3)=NN2C(N)=O)c1OC (centres unmarked) [Compound 35]	64 (≈ 202 µM)	64 (≈ 202 µM)	16 (≈ 50.6 µM)	16 (≈ 50.6 µM)	32 ± 1 µg/mL	16 ± 2 (≈ 50.6 µM)	> 40		
COc1ccc(C2CC(c3ccno3)=NN2C(N)=O)c(OC)c1 (centres unmarked) [Compound 36]	8 (≈ 25.3 µM)	8 (≈ 25.3 µM)	4 (≈ 12.6 µM)	8 (≈ 25.3 µM)	25 ± 2 µg/mL	26 ± 2 (≈ 82.2 µM)	> 40		
COc1ccc(OC)c(C2CC(c3ccno3)=NN2C(N)=O)c1 (centres unmarked) [Compound 37]	32 (≈ 101 µM)	64 (≈ 202 µM)	32 (≈ 101 µM)	32 (≈ 101 µM)	39 ± 2 µg/mL	31 ± 2 (≈ 98 µM)	> 40		
COc1ccc(C2CC(c3ccno3)=NN2C(N)=O)cc1OC (centres unmarked) [Compound 39]	64 (≈ 202 µM)	128 (≈ 405 µM)	32 (≈ 101 µM)	32 (≈ 101 µM)	49 ± 1 µg/mL	4 ± 2 (≈ 12.6 µM)	> 40		4
COc1cc(OC)cc(C2CC(c3ccno3)=NN2C(N)=O)c1 (centres unmarked) [Compound 40]	256 (≈ 809 µM)	256 (≈ 809 µM)	64 (≈ 202 µM)	64 (≈ 202 µM)	12 ± 1 µg/mL	8 ± 2 (≈ 25.3 µM)	> 40		
COc1cc(OC)c(C2CC(c3ccno3)=NN2C(N)=O)cc1OC (centres unmarked) [Compound 42]	16 (≈ 46.2 µM)	32 (≈ 92.4 µM)	16 (≈ 46.2 µM)	16 (≈ 46.2 µM)	10 ± 2 µg/mL	18 ± 2 (≈ 52 µM)	> 40		
COc1cc(C2CC(c3ccno3)=NN2C(N)=O)cc(OC)c1OC (centres unmarked) [Compound 44]	256 (≈ 739 µM)	64 (≈ 185 µM)	16 (≈ 46.2 µM)	16 (≈ 46.2 µM)	12 ± 2 µg/mL	5 ± 2 (≈ 14.4 µM)	> 40		
CC(=O)O[C@@]12CO[C@@H]1C[C@H](O)[C@@]1(C)C(=O)[C@H](O)C3=C(C)[C@@H](OC(=O)[C@H](O)[C@@H](NC(=O)OC(C)(C)C)c4ccccc4)C[C@@](O)([C@@H](OC(=O)c4ccccc4)[C@H]21)C3(C)C [Docetaxel, reference compound]						5 (≈ 6.19 µM)			5
OC(Cn1cncn1)(Cn1cncn1)c1ccc(F)cc1F [Fluconazole, reference compound]			1 (≈ 3.27 µM)	1 (≈ 3.27 µM)				1 (≈ 3.27 µM)	
O=C(O)c1cc(O)c(O)c(O)c1 [Gallic acid, reference compound]					Gallic acid 5 ± 1 µg/mL				
